Laboratory results published in publication PMC7176092, “Development of the first in vivo GPR17 ligand through an iterative drug discovery pipeline: A novel disease-modifying strategy for multiple sclerosis” (PLoS ONE, 2020).
Where “and” joins values, the source holds several entries; their conditions need not be identical. Identical values can stand only once. Like-named read-outs stand apart in the source and are kept apart here.

What was measured:
[1] = biological target: T1, ADR1D (Homo sapiens, UniProt P25100); test: Binding assay ADR1D; settings: 100 nM
T1 construct: Eurofins Cerep (external service)
T1 sequence (P25100 1-572): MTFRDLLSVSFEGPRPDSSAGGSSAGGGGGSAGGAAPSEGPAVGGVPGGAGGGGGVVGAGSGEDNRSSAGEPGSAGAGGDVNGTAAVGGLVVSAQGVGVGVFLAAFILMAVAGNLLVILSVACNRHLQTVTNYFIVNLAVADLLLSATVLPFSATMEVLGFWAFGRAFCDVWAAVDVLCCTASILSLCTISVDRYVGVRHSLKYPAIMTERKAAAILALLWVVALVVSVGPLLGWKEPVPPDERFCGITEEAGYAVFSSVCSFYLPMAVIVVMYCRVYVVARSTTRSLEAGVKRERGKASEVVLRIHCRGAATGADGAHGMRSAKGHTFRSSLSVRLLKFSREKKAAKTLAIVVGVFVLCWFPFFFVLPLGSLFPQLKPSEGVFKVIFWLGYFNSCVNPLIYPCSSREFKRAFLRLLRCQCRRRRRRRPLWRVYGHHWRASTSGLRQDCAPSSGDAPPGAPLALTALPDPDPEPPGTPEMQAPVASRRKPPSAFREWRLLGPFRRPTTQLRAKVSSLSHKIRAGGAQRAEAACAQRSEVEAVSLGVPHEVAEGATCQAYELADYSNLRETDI

[2] = biological target: T2, ADR2B (Homo sapiens, UniProt P18089); test: Binding assay ADR2B; settings: 100 nM
T2 construct: Eurofins Cerep (external service)
T2 sequence (P18089 1-450): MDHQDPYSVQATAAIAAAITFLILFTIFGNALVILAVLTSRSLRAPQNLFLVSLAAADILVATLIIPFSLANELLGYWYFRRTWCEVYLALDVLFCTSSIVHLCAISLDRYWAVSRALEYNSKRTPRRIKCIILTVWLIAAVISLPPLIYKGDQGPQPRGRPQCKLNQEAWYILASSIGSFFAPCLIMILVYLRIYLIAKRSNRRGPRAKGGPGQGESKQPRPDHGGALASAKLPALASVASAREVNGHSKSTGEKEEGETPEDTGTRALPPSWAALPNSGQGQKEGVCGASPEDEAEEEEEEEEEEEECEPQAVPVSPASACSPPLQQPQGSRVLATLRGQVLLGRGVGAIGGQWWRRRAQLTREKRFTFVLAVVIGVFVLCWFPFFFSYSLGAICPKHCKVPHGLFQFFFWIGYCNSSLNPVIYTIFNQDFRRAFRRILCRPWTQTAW

[3] = biological target: T3, ADR1 (Homo sapiens, UniProt P08588); test: Binding assay ADR1 (reference atenolol); settings: 100 nM
T3 construct: Eurofins Cerep (external service)
T3 sequence (P08588 whole entry): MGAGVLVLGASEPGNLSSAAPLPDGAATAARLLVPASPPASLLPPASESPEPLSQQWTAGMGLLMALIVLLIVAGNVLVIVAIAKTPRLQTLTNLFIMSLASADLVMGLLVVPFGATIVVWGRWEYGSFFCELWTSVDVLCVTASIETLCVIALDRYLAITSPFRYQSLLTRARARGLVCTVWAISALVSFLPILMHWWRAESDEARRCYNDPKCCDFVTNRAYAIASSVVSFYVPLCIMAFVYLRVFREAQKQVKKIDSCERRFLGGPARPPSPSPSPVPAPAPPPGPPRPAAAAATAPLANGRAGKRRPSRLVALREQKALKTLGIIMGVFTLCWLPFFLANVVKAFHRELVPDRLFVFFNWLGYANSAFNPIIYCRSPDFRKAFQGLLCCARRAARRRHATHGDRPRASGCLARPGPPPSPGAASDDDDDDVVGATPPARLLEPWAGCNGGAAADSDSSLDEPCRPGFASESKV

[4] = biological target: T4, CXCR2 (Homo sapiens, UniProt P25025); test: Binding assay CXCR2; settings: 100 nM
T4 construct: Eurofins Cerep (external service)
T4 sequence (P25025 1-360): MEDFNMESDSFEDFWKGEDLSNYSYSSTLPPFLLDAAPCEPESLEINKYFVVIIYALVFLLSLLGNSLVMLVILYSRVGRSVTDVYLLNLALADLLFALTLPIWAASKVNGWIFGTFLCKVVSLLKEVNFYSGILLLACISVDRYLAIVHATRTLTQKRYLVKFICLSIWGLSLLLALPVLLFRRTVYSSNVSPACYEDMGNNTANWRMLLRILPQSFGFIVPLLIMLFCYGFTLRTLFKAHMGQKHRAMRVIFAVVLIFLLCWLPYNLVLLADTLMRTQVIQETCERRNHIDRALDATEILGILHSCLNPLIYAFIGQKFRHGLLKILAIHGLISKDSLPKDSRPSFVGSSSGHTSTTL

[5] = biological target: T5, CCR2 (Homo sapiens, UniProt P41597); test: Binding assay CCR2; settings: 100 nM
T5 construct: Eurofins Cerep (external service)
T5 sequence (P41597 whole entry): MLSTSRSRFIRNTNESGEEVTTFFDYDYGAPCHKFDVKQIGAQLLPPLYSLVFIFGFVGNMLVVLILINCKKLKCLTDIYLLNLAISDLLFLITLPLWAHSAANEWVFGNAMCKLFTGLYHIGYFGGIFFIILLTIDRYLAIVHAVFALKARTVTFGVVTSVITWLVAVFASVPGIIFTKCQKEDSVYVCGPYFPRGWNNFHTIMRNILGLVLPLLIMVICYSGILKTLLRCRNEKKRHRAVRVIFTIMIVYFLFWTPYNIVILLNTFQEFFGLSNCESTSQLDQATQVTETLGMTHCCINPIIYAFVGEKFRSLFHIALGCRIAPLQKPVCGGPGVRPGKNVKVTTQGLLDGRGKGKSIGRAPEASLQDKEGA

[6] = biological target: CCR8 (Homo sapiens, UniProt P51685); test: Cellular functional assay CCR8
Chain of CCR8 (P51685 whole entry): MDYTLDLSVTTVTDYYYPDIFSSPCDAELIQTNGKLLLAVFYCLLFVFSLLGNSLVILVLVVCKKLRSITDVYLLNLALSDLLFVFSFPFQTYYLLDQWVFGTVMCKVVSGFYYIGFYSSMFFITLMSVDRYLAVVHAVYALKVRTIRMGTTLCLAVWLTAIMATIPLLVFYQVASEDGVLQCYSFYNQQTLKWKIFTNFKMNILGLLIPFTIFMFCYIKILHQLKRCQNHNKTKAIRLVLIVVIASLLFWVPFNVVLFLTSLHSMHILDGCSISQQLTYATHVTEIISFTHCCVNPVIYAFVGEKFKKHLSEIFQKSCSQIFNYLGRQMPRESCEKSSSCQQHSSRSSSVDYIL

[7] = biological target: T6, CCR9 (Homo sapiens, UniProt P51686); test: Cellular functional assay CCR9
T6 sequence (P51686 1-369): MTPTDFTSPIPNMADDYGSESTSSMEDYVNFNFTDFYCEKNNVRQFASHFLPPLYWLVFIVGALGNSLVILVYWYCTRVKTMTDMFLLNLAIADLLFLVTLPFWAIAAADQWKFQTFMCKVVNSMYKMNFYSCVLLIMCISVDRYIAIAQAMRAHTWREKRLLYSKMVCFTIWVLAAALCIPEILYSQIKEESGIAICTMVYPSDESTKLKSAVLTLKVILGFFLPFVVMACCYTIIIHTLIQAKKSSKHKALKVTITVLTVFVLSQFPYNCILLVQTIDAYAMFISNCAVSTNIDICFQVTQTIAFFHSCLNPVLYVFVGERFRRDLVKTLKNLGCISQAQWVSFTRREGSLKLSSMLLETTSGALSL

[8] = biological target: T7, CXCR3 (Homo sapiens, UniProt P49682); test: Cellular functional assay CXCR3
T7 sequence (P49682 1-368): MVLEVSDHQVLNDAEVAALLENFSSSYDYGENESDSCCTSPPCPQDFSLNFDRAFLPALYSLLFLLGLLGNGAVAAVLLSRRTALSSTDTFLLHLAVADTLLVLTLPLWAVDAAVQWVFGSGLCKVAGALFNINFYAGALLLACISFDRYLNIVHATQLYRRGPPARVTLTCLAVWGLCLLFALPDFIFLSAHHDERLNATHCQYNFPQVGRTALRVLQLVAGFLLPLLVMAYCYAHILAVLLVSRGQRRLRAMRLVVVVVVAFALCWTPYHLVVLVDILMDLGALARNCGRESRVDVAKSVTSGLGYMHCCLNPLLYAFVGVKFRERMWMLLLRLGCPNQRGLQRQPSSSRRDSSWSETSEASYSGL

[9] = biological target: CXCR4 (Homo sapiens, UniProt P61073); test: Cellular functional assay CXCR4
Chain of CXCR4 (P61073 whole entry): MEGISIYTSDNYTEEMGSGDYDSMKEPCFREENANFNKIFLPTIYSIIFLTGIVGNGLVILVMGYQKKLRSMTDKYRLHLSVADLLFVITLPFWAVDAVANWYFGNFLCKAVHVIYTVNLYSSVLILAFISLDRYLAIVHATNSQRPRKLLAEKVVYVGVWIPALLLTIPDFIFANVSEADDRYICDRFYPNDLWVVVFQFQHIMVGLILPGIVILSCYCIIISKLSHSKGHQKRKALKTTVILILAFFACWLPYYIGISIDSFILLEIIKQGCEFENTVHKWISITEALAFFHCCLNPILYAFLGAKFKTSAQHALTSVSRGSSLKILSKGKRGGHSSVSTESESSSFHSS

[10] = mean of 2, read-out: % Of control specific binding, Mean
[11] = read-out: % Inhibition of control specific binding
[12] = single replicates 1 and 2, 0.1 µM
[13] = single replicates 1 and 2, read-out: % Of control specific binding
[14] = antagonist effect, 100 nM, single replicates 1st and 2nd, 0.1 µM
[15] = read-out: % Inhibition of control agonist response
[16] = read-out: Agonist Response (% of Control), Mean, antagonist effect, 100 nM, mean of 2
[17] = read-out: Agonist Response (% of Control), antagonist effect, 100 nM, single replicates 1st and 2nd

Cc1ccc(-c2nnc(SCC(=O)Nc3nccs3)[nH]2)cc1 [Compound 9]
remaining activity at 0.1 µM [1, 10]: 101%
inhibition at 0.1 µM [1, 11]: -1%
% Of control specific binding [1, 12]: 90.2% and 111.5%
remaining activity at 0.1 µM [2, 10]: 99.9%
inhibition at 0.1 µM [2, 11]: 0%
% Of control specific binding [2, 12]: 95.6%
remaining activity at 0.1 µM [2, 13]: 104%
remaining activity at 0.1 µM [3, 10]: 91.5%
inhibition at 0.1 µM [3, 11]: 9%
% Of control specific binding [3, 12]: 88.9%
remaining activity at 0.1 µM [3, 13]: 94%
remaining activity at 0.1 µM [4, 10]: 97.3%
inhibition at 0.1 µM [4, 11]: 3%
% Of control specific binding [4, 12]: 98.7%
remaining activity at 0.1 µM [4, 13]: 96%
remaining activity at 0.1 µM [5, 10]: 88.4%
inhibition at 0.1 µM [5, 11]: 12%
% Of control specific binding [5, 12]: 88.9%
remaining activity at 0.1 µM [5, 13]: 88%
Agonist Response (% of Control) [6, 14]: 116.9% and 80.2%
inhibition at 0.1 µM [6, 15]: 2%
activity at 0.1 µM [6, 16]: 98.5%
Agonist Response (% of Control) [7, 14]: 95.2%
inhibition at 0.1 µM [7, 15]: 0.1%
activity at 0.1 µM [7, 16]: 102%
activity at 0.1 µM [7, 17]: 108%
Agonist Response (% of Control) [8, 14]: 102.1%
inhibition at 0.1 µM [8, 15]: 0.3%
activity at 0.1 µM [8, 16]: 102%
activity at 0.1 µM [8, 17]: 103%
Agonist Response (% of Control) [9, 14]: 70.8%
inhibition at 0.1 µM [9, 15]: 4.4%
activity at 0.1 µM [9, 16]: 78.2%
activity at 0.1 µM [9, 17]: 85.6%
